Converted amounts (≈) assume the structure as drawn.
What was measured:
Enterovirus A71 = assay: Antiviral activity against Enterovirus serotype 71 infected in african green monkey BGMK cells assessed as inhibition of virus induced cytopathic effect after 18 to 24 hrs; type: functional, organism-based; conditions: Enterovirus A
[1] = Selectivity index, ratio of CC50 for african green monkey BGMK cells to EC50 for poliovirus; type: toxicity, cell-based; conditions: read-out: Ratio CC50/EC50
Enterovirus C [2] = assay: Antiviral activity against Poliovirus PV3-Leon serotype PV3 vaccine-derived infected in […] LLC-MK2 cells assessed as inhibition of viral-replication induced cytopathic effect; type: functional, organism-based
Enterovirus C [3] = assay: Antiviral activity against Poliovirus 10691 serotype PV1 obtained from circulating vaccine infected in […] LLC-MK2 cells assessed as inhibition of viral-replication induced cytopathic effect; type: functional, organism-based; conditions: 10691 serotype PV1, LLC-MK2
Enterovirus C [4] = assay: Antiviral activity against Poliovirus 10690 serotype PV1 obtained from circulating vaccine infected in […] LLC-MK2 cells assessed as inhibition of viral-replication induced cytopathic effect; type: functional, organism-based; conditions: 10690 serotype PV1, LLC-MK2
Enterovirus C [5] = assay: Antiviral activity against Poliovirus 10226 serotype PV2 obtained from immunodeficient chronic excretor infected in […] LLC-MK2 cells assessed as inhibition of viral-replication induced cytopathic effect; type: functional, organism-based; conditions: 10226 serotype PV2, LLC-MK2
Enterovirus C [6] = assay: Antiviral activity against Poliovirus 10805 serotype PV3 infected in […] LLC-MK2 cells assessed as inhibition of viral-replication induced cytopathic effect; type: functional, organism-based; conditions: 10805 serotype PV3, LLC-MK2
Coxsackievirus B2 = assay: Antiviral activity against Coxsackievirus serotype B2 infected in african green monkey BGMK cells assessed as inhibition of virus induced cytopathic effect after 18 to 24 hrs; type: functional, organism-based; conditions: Enterovirus B
Enterovirus C [7] = assay: Antiviral activity against Poliovirus 10693 serotype PV1 obtained from circulating vaccine infected in […] LLC-MK2 cells assessed as inhibition of viral-replication induced cytopathic effect; type: functional, organism-based; conditions: 10693 serotype PV1, LLC-MK2
HeLa = assay: Cytotoxicity against human HeLa cells after 18 to 24 hrs by MTT assay; type: cell-based
Coxsackievirus A9 = assay: Antiviral activity against Coxsackievirus serotype A9 infected in african green monkey BGMK cells assessed as inhibition of virus induced cytopathic effect after 18 to 24 hrs; type: functional, organism-based; conditions: Enterovirus B
Enterovirus C [8] = assay: Antiviral activity against Poliovirus 10221 serotype PV2 obtained from immunodeficient chronic excretor infected in […] LLC-MK2 cells assessed as inhibition of viral-replication induced cytopathic effect; type: functional, organism-based; conditions: 10221 serotype PV2, LLC-MK2
Enterovirus C [9] = assay: Antiviral activity against Poliovirus 10237 serotype PV1 obtained from circulating vaccine infected in […] LLC-MK2 cells assessed as inhibition of viral-replication induced cytopathic effect; type: functional, organism-based; conditions: 10237 serotype PV1, LLC-MK2
Enterovirus C [10] = assay: Antiviral activity against Poliovirus PV1-LSc/2ab serotype PV1 vaccine-derived infected in […] LLC-MK2 cells assessed as inhibition of viral-replication induced cytopathic effect; type: functional, organism-based; conditions: PV1-LSc/2ab serotype PV1, LLC-MK2
Enterovirus C [11] = assay: Antiviral activity against Poliovirus 10233 serotype PV2 obtained from circulating vaccine infected in […] LLC-MK2 cells assessed as inhibition of viral-replication induced cytopathic effect; type: functional, organism-based; conditions: 10233 serotype PV2, LLC-MK2
Enterovirus C [12] = assay: Antiviral activity against Poliovirus 10235 serotype PV1 obtained from circulating vaccine infected in […] LLC-MK2 cells assessed as inhibition of viral-replication induced cytopathic effect; type: functional, organism-based; conditions: 10235 serotype PV1, LLC-MK2
Enterovirus C [13] = assay: Antiviral activity against Poliovirus 10230 serotype PV2 obtained from circulating vaccine infected in […] LLC-MK2 cells assessed as inhibition of viral-replication induced cytopathic effect; type: functional, organism-based; conditions: 10230 serotype PV2, LLC-MK2
Coxsackievirus B1 = assay: Antiviral activity against Coxsackievirus serotype B1 infected in african green monkey BGMK cells assessed as inhibition of virus induced cytopathic effect after 18 to 24 hrs; type: functional, organism-based; conditions: Enterovirus B
Enterovirus C [14] = assay: Antiviral activity against Poliovirus 10689 serotype PV1 obtained from immunodeficient chronic excretor infected in […] LLC-MK2 cells assessed as inhibition of viral-replication induced cytopathic effect; type: functional, organism-based; conditions: 10689 serotype PV1, LLC-MK2
enterovirus D68 = assay: Antiviral activity against Enterovirus serotype 68 infected in african green monkey BGMK cells assessed as inhibition of virus induced cytopathic effect after 18 to 24 hrs; type: functional, organism-based; conditions: Enterovirus D
Enterovirus C [15] = assay: Antiviral activity against Poliovirus 10228 serotype PV2 obtained from immunodeficient chronic excretor infected in […] LLC-MK2 cells assessed as inhibition of viral-replication induced cytopathic effect; type: functional, organism-based; conditions: 10228 serotype PV2, LLC-MK2
Coxsackievirus B5 = assay: Antiviral activity against Coxsackievirus serotype B5 infected in african green monkey BGMK cells assessed as inhibition of virus induced cytopathic effect after 18 to 24 hrs; type: functional, organism-based; conditions: Enterovirus B
Enterovirus C [16] = assay: Antiviral activity against Poliovirus 10804 serotype PV3 obtained from immunodeficient chronic excretor infected in […] LLC-MK2 cells assessed as inhibition of viral-replication induced cytopathic effect; type: functional, organism-based; conditions: 10804 serotype PV3, LLC-MK2
Enterovirus C [17] = assay: Antiviral activity against Poliovirus 10242 serotype PV1 obtained from circulating vaccine infected in […] LLC-MK2 cells assessed as inhibition of viral-replication induced cytopathic effect; type: functional, organism-based; conditions: 10242 serotype PV1, LLC-MK2
Enterovirus C [18] = assay: Antiviral activity against Poliovirus 10229 serotype PV2 obtained from circulating vaccine infected in […] LLC-MK2 cells assessed as inhibition of viral-replication induced cytopathic effect; type: functional, organism-based; conditions: 10229 serotype PV2, LLC-MK2
Enterovirus C [19] = assay: Antiviral activity against Poliovirus Lansing serotype PV2 infected in […] LLC-MK2 cells assessed as inhibition of viral-replication induced cytopathic effect; type: functional, organism-based
Enterovirus C [20] = assay: Antiviral activity against Poliovirus 10243 serotype PV2 obtained from immunodeficient chronic excretor infected in […] LLC-MK2 cells assessed as inhibition of viral-replication induced cytopathic effect; type: functional, organism-based; conditions: 10243 serotype PV2, LLC-MK2
Coxsackievirus B3 = assay: Antiviral activity against Coxsackievirus serotype B3 infected in african green monkey BGMK cells assessed as inhibition of virus induced cytopathic effect after 18 to 24 hrs; type: functional, organism-based; conditions: Enterovirus B
Enterovirus C [21] = assay: Antiviral activity against Poliovirus 10222 serotype PV1 obtained from immunodeficient chronic excretor infected in […] LLC-MK2 cells assessed as inhibition of viral-replication induced cytopathic effect; type: functional, organism-based; conditions: 10222 serotype PV1, LLC-MK2

Question: Which results are given for `COc1ccc(OCc2ccc(COc3c(Cl)cccc3Cl)cc2)c(Cl)c1`?
Answer: MIC90 (Enterovirus A71): 1.42 µM (≈ 0.602 µg/mL); EC50 (Enterovirus A71; BGMK): 3470 nM; selectivity ratio [1]: 75; EC50 (Enterovirus C [2]): 20 nM; EC50 (Enterovirus C [3]): 18 nM; EC50 (Enterovirus C [4]): 29 nM; EC50 (Enterovirus C [5]): 19 nM; EC50 (Enterovirus C [6]): 29 nM; EC50 (Coxsackievirus B2): 3790 nM; EC50 (Enterovirus C [7]): 8 nM; Activity (HeLa): > 50 µg/mL; EC50 (Coxsackievirus A9): 3790 nM; EC50 (Enterovirus C [8]): 27 nM; EC50 (Enterovirus C [9]): 11 nM; EC50 (Enterovirus C [10]): 17 nM; EC50 (Enterovirus C [11]): 24 nM; EC50 (Enterovirus C [12]): 18 nM; EC50 (Enterovirus C [13]): 36 nM; EC50 (Coxsackievirus B1): 3790 nM; EC50 (Enterovirus C [14]): 42 nM; MIC90 (enterovirus D68): 1.42 µM (≈ 0.602 µg/mL); EC50 (enterovirus D68; BGMK): 3470 nM; EC50 (Enterovirus C [15]): 126 nM; EC50 (Coxsackievirus B5): 3790 nM; EC50 (Enterovirus C [16]): 42 nM; EC50 (Enterovirus C [17]): 17 nM; EC50 (Enterovirus C [18]): 20 nM; EC50 (Enterovirus C [19]): 7 nM; EC50 (Enterovirus C [20]): 38 nM; EC50 (Coxsackievirus B3): 3790 nM; EC50 (Enterovirus C [21]): 15 nM
